One data set has as its target T1, recombinant human MAO-B (Homo sapiens, UniProt P27338).
T1 construct: purchased Sigma-Aldrich Corporation
T1 sequence (P27338 1-520): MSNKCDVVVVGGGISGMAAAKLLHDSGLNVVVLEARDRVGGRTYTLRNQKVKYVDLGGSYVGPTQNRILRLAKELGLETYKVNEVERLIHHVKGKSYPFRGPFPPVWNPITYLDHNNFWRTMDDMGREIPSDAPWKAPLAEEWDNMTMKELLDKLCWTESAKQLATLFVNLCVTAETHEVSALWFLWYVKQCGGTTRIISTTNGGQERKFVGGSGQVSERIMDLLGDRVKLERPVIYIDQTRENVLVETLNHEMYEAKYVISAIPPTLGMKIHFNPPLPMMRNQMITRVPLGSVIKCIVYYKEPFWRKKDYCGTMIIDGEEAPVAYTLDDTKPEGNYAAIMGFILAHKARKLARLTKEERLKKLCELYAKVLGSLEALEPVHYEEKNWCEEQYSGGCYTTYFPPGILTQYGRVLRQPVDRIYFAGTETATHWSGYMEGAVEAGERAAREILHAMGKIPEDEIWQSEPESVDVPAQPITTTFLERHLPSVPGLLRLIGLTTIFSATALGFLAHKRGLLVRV
As to the kind of experiment: MAO-B inhibition, MAO-Glo commercial kit. The format is biochemical. The settings on record: Ki converted from IC50 by Cheng-Prusoff; duplicate, mean ± SD; read-out: Ki hMAO-B. How it is done: Inhibitory potency on MAO-B enzyme from recombinant human MAO-B were carried out by a fluorometric method with a commercial kit (Promega, MAO-Glo Assay). The MAO enzyme incubation experiments were carried with a MAO-B substrate, methyl (S)-2-(6-(2-aminoethoxy) benzo[d]thiazol-2-yl)-4,5-dihydrothiazole-4-carboxylate, which was converted to luciferin methyl ester. Then the “Luciferin Detection Reagent” was added to change the methyl ester derivative to luciferin, stop the MAO-B reaction, and simultaneously produce light. The intensity of light is directly in proportion to MAO-B activity. The assay was carried in a 96-well black opaque microplate in duplicate. The reaction mixture was composed of 12.5 μL of MAO-B substrate (a final concentration of 4 μM), 25 μL of human MAO-B (1 μg of protein/well), and 12.5 μL of test compounds for each well. After 1 h of incubation at 37 °C, each well added 50 μL of “Luciferin Detection Reagent”, and incubated an additional 20 min. the luminescent signal of microplate was measured by a luminometer. The signal from reaction of MAO-B enzyme and substrate without inhibitors accounted as the positive control, whereas the signal from reaction of MAO-B enzyme and inhibitors in the absence of substrate accounted as the negative control. Compound concentrations of 1 μM were tested at first. IC50 values (the half maximal inhibitory concentration) were performed from concentration–response curves, plotted by the GraphPad Prism software. All experiments were performed in duplicate, and data are expressed as mean ± SD.

The target in another data set is T2, human A2AR (Homo sapiens, UniProt P29274).
T2 construct: expressed in transfected cells
T2 sequence (P29274 whole entry): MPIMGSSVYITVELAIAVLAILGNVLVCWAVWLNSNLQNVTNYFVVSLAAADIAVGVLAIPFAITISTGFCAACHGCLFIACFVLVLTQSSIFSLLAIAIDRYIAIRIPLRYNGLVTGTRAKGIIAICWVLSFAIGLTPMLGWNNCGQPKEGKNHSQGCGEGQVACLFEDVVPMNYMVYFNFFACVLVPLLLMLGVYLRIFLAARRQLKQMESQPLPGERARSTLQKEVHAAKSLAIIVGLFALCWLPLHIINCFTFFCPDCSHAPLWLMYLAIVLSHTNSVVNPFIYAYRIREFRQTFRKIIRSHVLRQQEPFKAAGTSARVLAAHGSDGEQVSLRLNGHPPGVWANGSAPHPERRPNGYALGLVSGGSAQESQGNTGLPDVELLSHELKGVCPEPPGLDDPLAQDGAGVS
In words: Radioligand binding assay ([3H]ZM241385 competition) on membranes of HEK-293 cells transfected with human A2AR. The settings on record: [3H]ZM241385 displacement; Ki converted from IC50 by Cheng-Prusoff; duplicate, mean ± SD; read-out: Ki hA2AR. How it is done: The binding affinity of test compounds was determined using radioligand binding assays. Human A2AR cDNA was stably transfected into HEK-293 cells. Membranes from the transfected cell were used in the interactive capacity of each compound toward the A2AR. Competition binding assay experiments by incubating membranes of 10 μg protein with 2 nM [3H]ZM241385 were carried out, with interval concentrations ranging from 0.1 nM to 100 μM of test compounds in 96-well filter plates at 4 °C for 90 min. After incubation experiments, free and bound radioligands were split by filtering and washing. Last, filter-bound radioactivity was counted after addition of 30 μL/well of scintillation solution. Nonspecific binding was measured in the presence of 100 μM ZM241385. The experiments were carried in duplicate. IC50 values were determined using a nonlinear regression curve fitting by the program GraphPad Prism. The affinities of compounds were calculated by Ki value which was from the IC50 values according as the Cheng−Prusoff equation [19].

The test system of data set [1] is haloperidol-induced catalepsy in rats. As to the kind of experiment: Haloperidol-induced catalepsy, bar test. The data set is classed as in vivo. The settings on record: i.p. The protocol:
Catalepsy was measured using a thin metal bar test at 9.0 cm height. In this test, each rat was injected intraperitoneally by haloperidol (1.5 mg/kg). Before i.p. administration of vehicle (2% Tween 80–saline), PX-D-P6 and PX-E-P8 (5, 15, 50 mg/kg), at time 0 min, we tested all rats for successful induction of catalepsy. The length of time (descent latency) it persisted in hanging onto the metal bar was measured for a period of up to 300 s (maximum score). After this period, the rat was gently removed from the bar. The high bar test was performed 20 min after the injection of compound. Descent latencies have been presented as median and interquartile ranges. Differences between medians were analyzed by Kruskal-Wallis test, followed by Bonferroni's test.

A short description of data set [2]: Plasma and brain distribution at 1 h after i.p. administration. The format is in vivo. The settings on record: Sprague-Dawley, rat, ip, rats, 1 h after i.p. 50 mg/kg; for concentration at 1 h: n = 6. An excerpt: (§1) Sprague-Dawley rats (200 ± 20 g) were obtained from the Laboratory Animal Center of Wenzhou Medical University (Wenzhou, China) to study the pharmacokinetics and tissue distribution studies (TDS) of PX-D-P6 and PX-E-P8 following intraperitoneal injection (i.p.) administration. The experiment procedures and protocols were approved the Animal Care and Use Committee of Wenzhou Medical College and complied with the Guide for the Care and Use of Laboratory Animals. The corresponding ethical approval code was WMU20161025.
(§2) The chosen compounds dissolved in suspension formulation (2 % Tween 80–saline) were administered to each rat at a dose of 50 mg/kg. Blood samples (0.3 mL) were collected from the caudal vein into 1.5 mL tapered plastic centrifuge tubes (pretreated with K2EDTA as an anticoagulant) at pre-dose, 0.08, 0.16, 0.25, 0.5, 1, 2, 4, 8, 12, 24 h after i.p. administration. Separately, blood and brain samples were collected at pre-dose and 1 h for TDS. Blood samples were immediately centrifuged at 3000 g for 10 min for isolation of the plasma. Brain samples were homogenized in phosphate buffer saline. 100 μL plasma or 200 μL brain sample was precipitated with addition of 400 μL acetonitrile and vortex mixed for 1 min and centrifuged at 10,000 g for 10 min. Finally, 2μL supernatant was injected into UPLC/MS system. Calibration standards samples were prepared with blank rat plasma or brain homogenates. Plasma pharmacokinetic parameters were analyzed by DAS (Drug and Statistics) software (Version 2, Wenzhou Medical University, Wenzhou, China).

A short description of data set [3]: Plasma pharmacokinetics after i.p. administration. The data set is classed as in vivo, Sprague-Dawley rats. The settings on record: 50 mg/kg, rats.
Source text: as §1, §2

Where [4] appears, read: Sprague-Dawley, rat, plasma, ip, n = 6.

One may read the Ki as a measure of affinity in units of concentration, obtained from inhibition or displacement. The term melting point denotes the temperature, or range, at which the solid turns liquid. Usually Tmax stands for the time at which the peak concentration occurs. The term AUC(0-t) denotes the area under the concentration-time curve up to a stated or last time point. High values mean more exposure, low ones less exposure. The Cmax is the peak of the concentration-time curve. What is called half-life is the time needed for the level to fall by half in the phase considered. Higher therefore signals slow decline.

SMILES strings stand for the structures. Read-outs that look alike come from different tables or passages of the source.

As for `CCn1c(=O)c2c(nc(/C=C/c3ccc(OC)c(OC)c3)n2C)n(CC)c1=O` [Istradefylline, reference compound], the Ki at recombinant human MAO-B was greater than 10000 nM.
On to `COc1ccc(C(=O)Nc2cccc(-c3nc4c([nH]3)c(=O)n(C)c(=O)n4C)c2)cc1OC` [PX-D-M5, N-(3-(1,3-Dimethyl-2,6-dioxo-2,3,6,7-tetrahydro-1H-purin-8-yl)phenyl)-3,4-dimethoxybenzamide], for which the melting point was greater than 300 °C. For the same molecule, the Ki at recombinant human MAO-B was found to be 2360 ± 310 nM. For the same molecule, the inhibition constant Ki at human A2AR came out at 4990 ± 750 nM.
The matching figures for `Cn1c(=O)c2c(nc(-c3cccc(NC(=O)c4cccc(Cl)c4)c3)n2C)n(C)c1=O` [PX-D-M9, 3-Chloro-N-(3-(1,3,7-trimethyl-2,6-dioxo-2,3,6,7-tetrahydro-1H-purin-8-yl)phenyl)benzamide]: greater than 300 °C, 760 ± 110 nM and 2440 ± 210 nM.
For `COc1ccc(C(=O)Nc2cccc(-c3nc4c(c(=O)n(C)c(=O)n4C)n3C)c2)cc1OC` [PX-D-M10, 3,4-Dimethoxy-N-(3-(1,3,7-trimethyl-2,6-dioxo-2,3,6,7-tetrahydro-1H-purin-8-yl)phenyl)benzamide], in that order: greater than 300 °C, 2540 ± 310 nM and 3590 ± 360 nM.
The matching figures for `Cn1c(=O)c2[nH]c(-c3cccc(NC(=O)c4cccc(Cl)c4)c3)nc2n(C)c1=O` [PX-D-M 4, 3-Chloro-N-(3-(1,3-dimethyl-2,6-dioxo-2,3,6,7-tetrahydro-1H-purin-8-yl)phenyl)benzamide]: greater than 300 °C, 1270 ± 180 nM and 3610 ± 410 nM.
In turn, `Cn1c(=O)c2[nH]c(-c3ccc(NC(=O)c4cccc(Cl)c4)cc3)nc2n(C)c1=O` [PX-D-P4, 3-Chloro-N-(4-(1,3-dimethyl-2,6-dioxo-2,3,6,7-tetrahydro-1H-purin-8-yl)phenyl)benzamide] registered a melting point greater than 300 °C. Besides, the Ki on recombinant human MAO-B is 250 ± 50 nM. The Ki at human A2AR was 1520 ± 160 nM.
As for `COc1ccc(C(=O)Nc2ccc(-c3nc4c([nH]3)c(=O)n(C)c(=O)n4C)cc2)cc1OC` [PX-D-P5, N-(4-(1,3-Dimethyl-2,6-dioxo-2,3,6,7-tetrahydro-1H-purin-8-yl)phenyl)-3,4-dimethoxybenzamide], the melting point is greater than 300 °C. For the same molecule, the Ki at recombinant human MAO-B stood at 1920 ± 250 nM. Also, the Ki at human A2AR turned out to be 4270 ± 510 nM.
The molecule `Cn1c(=O)c2c(nc(-c3ccc(NC(=O)c4cccc(Cl)c4)cc3)n2C)n(C)c1=O` [PX-D-P9, 3-Chloro-N-(4-(1,3,7-trimethyl-2,6-dioxo-2,3,6,7-tetrahydro-1H-purin-8-yl)phenyl)benzamide] showed a melting point greater than 300 °C. Moreover, the Ki on recombinant human MAO-B is 1510 ± 190 nM. For the same molecule, on human A2AR, the Ki was 270 ± 80 nM.
For `COc1ccc(C(=O)Nc2ccc(-c3nc4c(c(=O)n(C)c(=O)n4C)n3C)cc2)cc1OC` [PX-D-P10, 3,4-Dimethoxy-N-(4-(1,3,7-trimethyl-2,6-dioxo-2,3,6,7-tetrahydro-1H-purin-8-yl)phenyl)benzamide], in that order: greater than 300 °C, 2970 ± 370 nM and 1340 ± 160 nM.
For `COc1ccc(/C=C/C(=O)Nc2cccc(-c3nc4c([nH]3)c(=O)n(C)c(=O)n4C)c2)cc1OC` [PX-E-M5], the melting point is greater than 300 °C.
Still for that read-out and setting: in the case of `COc1ccc(/C=C/C(=O)Nc2cccc(-c3nc4c(c(=O)n(C)c(=O)n4C)n3C)c2)cc1OC` [PX-E-M10] it was greater than 300 °C.
Molecule `Cn1c(=O)c2[nH]c(-c3ccc(NC(=O)/C=C/c4cccc(Cl)c4)cc3)nc2n(C)c1=O` [PX-E-P4, (E)-3-(3-Chlorophenyl)-N-(4-(1,3-dimethyl-2,6-dioxo-2,3,6,7-tetrahydro-1H-purin-8-yl)phenyl)acrylamide] yielded a melting point greater than 300 °C. For the same molecule, the inhibition constant Ki on recombinant human MAO-B worked out at 1750 ± 150 nM. Besides, on human A2AR, the Ki stood at 6430 ± 980 nM.
Molecule `Cn1c(=O)c2c(nc(-c3ccc(NC(=O)/C=C/c4cccc(Cl)c4)cc3)n2C)n(C)c1=O` [PX-E-P8, (E)-3-(3-Chlorophenyl)-N-(4-(1,3,7-trimethyl-2,6-dioxo-2,3,6,7-tetrahydro-1H-purin-8-yl)phenyl)acrylamide] returned a melting point greater than 300 °C. For the same molecule, on recombinant human MAO-B, the Ki is 630 ± 110 nM. In addition, the Anti-catalepsy ability result in data set [1] (50 mg/kg (high dose)) is listed as “significant anti-catalepsy ability”. Moreover, in data set [1] (different doses (5, 15 and 50 mg/kg), haloperidol 1.5 mg/kg), the “Effect on haloperidol-induced catalepsy” value is “significant reduction in catalepsy”. Moreover, the Anti-catalepsy effect result in data set [1] (low dose) is “slight effects”. In addition, in data set [2] (brain and plasma, read-out: B/P Ratio (brain/plasma ratio)), the Kp at 1 h was 0.97. Further, the concentration at 1 h in data set [2] (brain, read-out: Brain concentration) is 887 ± 113 ng/g. For the same molecule, the concentration at 1 h in data set [2] (plasma, read-out: Plasma concentration) is 915 ± 231 ng/mL. In addition, the Tmax in data set [3] (Sprague-Dawley, rat, plasma, ip, n = 6, read-out: Tmax) was found to be 28.8 min. Besides, in data set [3] (setting [4]), the AUC(0-t) amounted to 15600 ± 1540 ng·h/mL, the concentration peaked (Cmax) at 1640 ± 436 ng/mL and the half-life is 196 ± 23.4 min. Besides, in data set [3] (n = 6), the CL was 171.3 ± 36.5 mL/min/kg and the Tmax is 27 ± 12.6 min. Also, the Ki on human A2AR worked out at 850 ± 110 nM.

The values above are taken from publication PMC6152622, “Synthesis and Evaluation of Phenylxanthine Derivatives as Potential Dual A2AR Antagonists/MAO-B Inhibitors for Parkinson’s Disease” (Molecules : A Journal of Synthetic Chemistry and Natural …, 2017).
